Where a chain is given by its changes, count along the chain named. Names and notes keep the numbering of the source.

From patent US20160298129A1, “ALS INHIBITOR HERBICIDE TOLERANT MUTANT PLANTS” (BAYER CROPSCIENCE NV, priority 2013, published 2016) come the findings set out here.

One data set concerns the target AHAS P197S (Arabidopsis thaliana, UniProt P17597, E575Q/P197S). The class given is biochemical. The protocol:
(§1) Bacteria are grown at 37° C. in LB-medium containing 100 mg/l carbenicillin and 25 mg/l canamycin, induced with 1 mM isopropyl-β-D-thiogalactopyranoside at an OD600 of 0.6, cultivated for 16 hours at 18° C. and harvested by, e.g., centrifugation. Bacterial pellets are resuspended in 100 mM sodium phosphate buffer pH 7.0 containing 0.1 mM thiamine-pyrophosphate, 1 mM MgCl2, and 1 μM FAD at a concentration of 1 gram wet weight per 25 ml of buffer and disrupted by, e.g., sonification. The crude protein extract obtained after centrifugation is used for ALS activity measurements.
(§2) ALS protein can be extracted from leaves or tissue cultures, such as B. napus or B. juncea leaves, or B. napus or B. juncea tissue cultures as described by Ray (Plant Physiol, 1984, 75:827-831). An ALS assays can be carried out in 96-well microtiter plates using a modification of the procedure described by Ray (1984): The reaction mixture contains 20 mM potassium phosphate buffer pH 7.0, 20 mM sodium pyruvate, 0.45 mM thiamine-pyrophosphate, 0.45 mM MgCl2, 9 μM FAD. ALS enzyme and various concentrations of ALS inhibitors can be mixed in a final volume of 90 μl Assays can be initiated by adding enzyme and the assays can be terminated after 75 min incubation at 30° C. by the addition of 40 μl 0.5 M H2SO4.

In another data set the target is AHAS W574L (Arabidopsis thaliana, UniProt P17597, E575Q/W574L). The class given is biochemical. The protocol:
as §1, §2

The target of another data set is AHAS P197S-W574L (Arabidopsis thaliana, UniProt P17597, E575Q/P197S/W574L). Put plainly: biochemical. As to conditions: for Resistance Factor: AHAS P197S-W574L. How it is done:
as §1, §2

A further data set deals with AHAS D376E (Arabidopsis thaliana, UniProt P17597, D376E/E575Q). The data set can be described thus: biochemical. To be noted: for Resistance Factor: AHAS D376E. The protocol: as §1, §2
The target in another data set is AHAS WT (Arabidopsis thaliana, UniProt P17597). The data set can be described thus: biochemical. How it is done:
as §1, §2

Another data set concerns the target AHAS P197S-D376E (Arabidopsis thaliana, UniProt P17597, D376E/E575Q/P197S). Put plainly: biochemical. To be noted: for Resistance Factor: AHAS P197S-D376E. The protocol: as §1, §2
A further data set has as its target AHAS P197S-D376E-W574L (Arabidopsis thaliana, UniProt P17597, D376E/E575Q/P197S/W574L). The data set can be described thus: biochemical. As to conditions: for Resistance Factor: AHAS P197S-D376E-W574L. How it is done:
as §1, §2

The next data set deals with AHAS D376E-W574L (Arabidopsis thaliana, UniProt P17597, D376E/E575Q/W574L). Put plainly: biochemical. As to conditions: for Resistance Factor: AHAS D376E-W574L. The protocol:
as §1, §2

Data set [1] relates to wild-type (WT) oilseed rape. The data set can be described thus: Field herbicide tolerance, visible phytotoxicity. It is filed as in vivo, Brassica napus. To be noted: gai/ha: imazamox 40, bispyribac-sodium 50, propoxycarbazone-sodium 70, mesosulfuron-methyl 60, pyroxsulam 12.5 + cloquintocet-mexyl 37.5, each + rapeseed oil methylated 366.5.
Data set [2] deals with oilseed rape homozygous for HETO132 and HETO134 (132-134). The data set can be described thus: Field herbicide tolerance, visible phytotoxicity (ALS I W574L, ALS III P197S-W574L). It is filed as in vivo, Brassica napus. To be noted: gai/ha: imazamox 40, bispyribac-sodium 50, propoxycarbazone-sodium 70, mesosulfuron-methyl 60, pyroxsulam 12.5 + cloquintocet-mexyl 37.5, each + rapeseed oil methylated 366.5. The source says:
(§3) Seeds of spring oilseed rape homozygous for HETO139 and HETO134 were sown in a field according to typical practical agricultural methods together with seeds homozygous for HETO134 and HETO133 (comprising a W574L mutation on ALS III, which were obtained in the same way as HETO134), and with seeds homozygous for HETO134 and HETO132 (comprising a P197S and a W574L mutation on ALS III, which were obtained in essentially the same way as HETO139). Several ALS inhibitor herbicides were applied to the oilseed rape plants by using specific spray equipment for small plot applications.

The subject of data set [3] is oilseed rape homozygous for HETO133 and HETO134 (133-134). The data set can be described thus: Field herbicide tolerance, visible phytotoxicity (ALS I W574L, ALS III W574L). The class given is in vivo, Brassica napus. To be noted: gai/ha: imazamox 40, bispyribac-sodium 50, propoxycarbazone-sodium 70, mesosulfuron-methyl 60, pyroxsulam 12.5 + cloquintocet-mexyl 37.5, each + rapeseed oil methylated 366.5.
From the text: as §3

For data set [4], the system named is oilseed rape homozygous for HETO139 and HETO134 (139-134). Put plainly: Field herbicide tolerance, visible phytotoxicity (ALS I W574L, ALS III P197S-D376E). The class given is in vivo, Brassica napus. To be noted: gai/ha: imazamox 40, bispyribac-sodium 50, propoxycarbazone-sodium 70, mesosulfuron-methyl 60, pyroxsulam 12.5 + cloquintocet-mexyl 37.5, each + rapeseed oil methylated 366.5.
From the text: as §3

A further data set relates to AHAS enzymatic activity. The data set can be described thus: Kinetic parameters of enzymatic activity of AHAS mutants. The class given is biochemical. How it is done: The ALS inhibitor sensitivity and kinetic parameters of AHAS proteins comprising the P197S mutation, the W574L mutation, the D376E mutation, and combinations thereof in one protein, were determined essentially as described in WO 2013/127766.

Sequence of AHAS D376E-W574L (P17597 56-670 D376E/W574L/E575Q): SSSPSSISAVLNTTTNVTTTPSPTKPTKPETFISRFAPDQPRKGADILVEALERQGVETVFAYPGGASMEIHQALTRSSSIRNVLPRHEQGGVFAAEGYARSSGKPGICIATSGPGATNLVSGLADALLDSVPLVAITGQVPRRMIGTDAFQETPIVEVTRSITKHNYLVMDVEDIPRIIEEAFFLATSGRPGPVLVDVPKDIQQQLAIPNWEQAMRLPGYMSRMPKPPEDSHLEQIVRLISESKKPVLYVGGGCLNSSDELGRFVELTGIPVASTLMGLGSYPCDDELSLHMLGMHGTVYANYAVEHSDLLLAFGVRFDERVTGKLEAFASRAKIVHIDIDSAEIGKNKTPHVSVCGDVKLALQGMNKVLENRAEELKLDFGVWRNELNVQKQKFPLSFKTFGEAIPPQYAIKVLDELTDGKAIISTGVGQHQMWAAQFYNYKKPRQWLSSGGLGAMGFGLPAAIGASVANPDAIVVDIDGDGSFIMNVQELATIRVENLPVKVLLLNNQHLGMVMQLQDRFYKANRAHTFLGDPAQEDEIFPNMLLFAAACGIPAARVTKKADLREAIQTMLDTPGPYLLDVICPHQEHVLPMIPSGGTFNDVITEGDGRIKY
Sequence of AHAS P197S-D376E (P17597 56-670 P197S/D376E/E575Q): as the sequence (P17597 56-670 D376E/W574L/E575Q) above, with P142S, L519W counted along it
Sequence of AHAS WT (P17597 56-670 E575Q): as the sequence (P17597 56-670 D376E/W574L/E575Q) above, with E321D, L519W counted along it
Sequence of AHAS P197S (P17597 56-670 P197S/E575Q): as the sequence (P17597 56-670 D376E/W574L/E575Q) above, with P142S, E321D, L519W counted along it
Sequence of AHAS P197S-W574L (P17597 56-670 P197S/W574L/E575Q): as the sequence (P17597 56-670 D376E/W574L/E575Q) above, with P142S, E321D counted along it
Sequence of AHAS P197S-D376E-W574L (P17597 56-670 P197S/D376E/W574L/E575Q): as the sequence (P17597 56-670 D376E/W574L/E575Q) above, with P142S counted along it
Sequence of AHAS W574L (P17597 56-670 W574L/E575Q): as the sequence (P17597 56-670 D376E/W574L/E575Q) above, with E321D counted along it

`CCS(=O)(=O)c1cccnc1S(=O)(=O)NC(=O)Nc1nc(OC)cc(OC)n1` [Rimsulfuron, rimsulfuron]: the “Resistance Factor” value on AHAS P197S was 18; at AHAS W574L, 447; on AHAS P197S-W574L it was greater than 4466; on AHAS D376E, 56; on AHAS P197S-D376E, greater than 4466; at AHAS P197S-D376E-W574L it was greater than 4466. Moreover, at AHAS D376E-W574L, the “Resistance Factor” value is greater than 4466. Moreover, the IC50 (commonly the concentration at which inhibition is half-maximal) against AHAS P197S-W574L was greater than 100 µM; against AHAS D376E, 1.26 µM; against AHAS WT it was 0.02 µM; against AHAS P197S-D376E, greater than 100 µM; against AHAS P197S-D376E-W574L it was greater than 100 µM; against AHAS D376E-W574L, greater than 100 µM.

As for `CCS(=O)(=O)c1nc2ccccn2c1S(=O)(=O)NC(=O)Nc1nc(OC)cc(OC)n1` [Sulfosulfuron, sulfosulfuron], the “Resistance Factor” value on AHAS P197S is given as 1848; at AHAS W574L it was greater than 4641; on AHAS P197S-W574L, greater than 4641; on AHAS D376E it was 1166; at AHAS P197S-D376E, greater than 4641; on AHAS P197S-D376E-W574L, greater than 4641. At AHAS D376E-W574L, the “Resistance Factor” value was greater than 4641. The IC50 was greater than 100 µM against AHAS P197S-W574L; 25.1 µM against AHAS D376E; 0.02 µM against AHAS WT; greater than 100 µM at AHAS P197S-D376E; greater than 100 µM on AHAS P197S-D376E-W574L; greater than 100 µM on AHAS D376E-W574L.

In the case of `COc1cc(OC)nc(NC(=O)NS(=O)(=O)c2ncccc2C(=O)N(C)C)n1` [Nicosulfuron, nicosulfuron], the “Resistance Factor” value is 6 at AHAS P197S; greater than 607 on AHAS W574L; greater than 607 on AHAS P197S-W574L; greater than 607 at AHAS D376E; greater than 607 at AHAS P197S-D376E; greater than 607 on AHAS P197S-D376E-W574L. In addition, the “Resistance Factor” value at AHAS D376E-W574L is greater than 607. Moreover, the half-maximal inhibitory concentration (IC50) at AHAS P197S-W574L is greater than 100 µM; against AHAS D376E it was greater than 100 µM; against AHAS WT it was 0.158 µM; at AHAS P197S-D376E, greater than 100 µM; at AHAS P197S-D376E-W574L it was greater than 100 µM; at AHAS D376E-W574L, greater than 100 µM.

In the case of `COCc1cnc(C2=NC(C)(C(C)C)C(=O)N2)c(C(=O)O)c1` (stereo not drawn) [Imazamox, imazamox], the “Resistance Factor” value on AHAS P197S is listed as 1; on AHAS W574L it was greater than 22; on AHAS P197S-W574L, greater than 22; on AHAS D376E, 11; on AHAS P197S-D376E, greater than 22; at AHAS P197S-D376E-W574L it was greater than 22. The “Resistance Factor” value at AHAS D376E-W574L was greater than 22. Moreover, the Percentage phytotoxicity turned out to be 73.3% in [1] (9 DAA); 98% in [1] (16 DAA); 99% in data set [1] (24 DAA); 6.7% in data set [2] (9 DAA); 8.7% in data set [2] (16 DAA); 0% in data set [2] (24 DAA). Further, the Percentage phytotoxicity in data set [3] (9 DAA) amounted to 6.7%; in [3] (16 DAA) it was 10%; in [3] (24 DAA), 0%; in data set [4] (9 DAA), 13.3%; in data set [4] (16 DAA), 13.3%; in data set [4] (24 DAA) it was 0%. The IC50 is greater than 100 µM on AHAS P197S-W574L; 50.1 µM on AHAS D376E; greater than 100 µM at AHAS P197S-D376E; greater than 100 µM against AHAS P197S-D376E-W574L; greater than 100 µM at AHAS D376E-W574L.

In the case of `COc1cc(OC)nc(Oc2cccc(Oc3nc(OC)cc(OC)n3)c2C(=O)O)n1` [Bispyribac-sodium, bispyribac-sodium], the “Resistance Factor” value on AHAS P197S is 4; at AHAS W574L, 447; at AHAS P197S-W574L, greater than 5623; at AHAS D376E, 56; at AHAS P197S-D376E, 447; on AHAS P197S-D376E-W574L, greater than 5623. The “Resistance Factor” value on AHAS D376E-W574L was greater than 5623. Besides, the Percentage phytotoxicity in data set [1] (9 DAA) was determined as 76.7%; in data set [1] (16 DAA), 98.3%; in [1] (24 DAA), 100%; in [2] (9 DAA), 46.7%; in data set [2] (16 DAA) it was 71.7%; in data set [2] (24 DAA), 43.3%. Further, the Percentage phytotoxicity in data set [3] (9 DAA) amounted to 56.7%; in [3] (16 DAA), 88.3%; in data set [3] (24 DAA) it was 92.7%; in [4] (9 DAA), 40%; in data set [4] (16 DAA), 65%; in data set [4] (24 DAA), 43.3%. Moreover, the IC50 was greater than 100 µM on AHAS P197S-W574L; 1 µM on AHAS D376E; 7.94 µM on AHAS P197S-D376E; greater than 100 µM at AHAS P197S-D376E-W574L; greater than 100 µM at AHAS D376E-W574L.

B1: D376E: AHAS protein with glutamic acid instead of aspartic acid at position 376 of SEQ ID NO: 10 (protein, listed as Arabidopsis thaliana)
chain: MAAATTTTTTSSSISFSTKPSPSSSKSPLPISRFSLPFSLNPNKSSSSSRRRGIKSSSPSSISAVLNTTTNVTTTPSPTKPTKPETFISRFAPDQPRKGADILVEALERQGVETVFAYPGGASMEIHQALTRSSSIRNVLPRHEQGGVFAAEGYARSSGKPGICIATSGPGATNLVSGLADALLDSVPLVAITGQVPRRMIGTDAFQETPIVEVTRSITKHNYLVMDVEDIPRIIEEAFFLATSGRPGPVLVDVPKDIQQQLAIPNWEQAMRLPGYMSRMPKPPEDSHLEQIVRLISESKKPVLYVGGGCLNSSDELGRFVELTGIPVASTLMGLGSYPCDDELSLHMLGMHGTVYANYAVEHSDLLLAFGVRFDERVTGKLEAFASRAKIVHIDIDSAEIGKNKTPHVSVCGDVKLALQGMNKVLENRAEELKLDFGVWRNELNVQKQKFPLSFKTFGEAIPPQYAIKVLDELTDGKAIISTGVGQHQMWAAQFYNYKKPRQWLSSGGLGAMGFGLPAAIGASVANPDAIVVDIDGDGSFIMNVQELATIRVENLPVKVLLLNNQHLGMVMQWQDRFYKANRAHTFLGDPAQEDEIFPNMLLFAAACGIPAARVTKKADLREAIQTMLDTPGPYLLDVICPHQEHVLPMIPSGGTFNDVITEGDGRIKY
For B1, in the data set on AHAS enzymatic activity, the Michaelis constant (Km) (as a rule, the substrate concentration at which the rate is half of its maximum) is 1.4 mM; the Vmax stood at 103.0 deltaOD550/min mg protein; the “relative Vmax” value amounted to 2.7.

B2: W574L: AHAS protein with leucine instead of tryptophan at position 574 of SEQ ID NO: 10 (protein, listed as Arabidopsis thaliana)
chain: B1 chain with E376D, W574L
Consider B2, for which, in the data set on AHAS enzymatic activity, the Michaelis constant (Km) was 7 mM, the Vmax was 54.4 deltaOD550/min mg protein and the “relative Vmax” value is recorded as 1.4.

B3: P197S: AHAS protein with serine instead of proline at position 197 of SEQ ID NO: 10 (protein, listed as Arabidopsis thaliana)
chain: B1 chain with P197S, E376D
For the molecule B3, in the data set with AHAS enzymatic activity, the Km turned out to be 5.5 mM, the Vmax is 50.0 deltaOD550/min mg protein and the “relative Vmax” value came to 1.3.
